Test results from patent US20100144606A1, “COMBINATION 408” (AstraZeneca AB, priority 2008, published 2010).
Where a name gives a salt, the structure may show the parent alone.

What was measured:
[1] = target: T1, β2 adrenoceptor (Homo sapiens, UniProt P07550); assay: Adrenergic β mediated cAMP production in H292 cells (AlphaScreen); assay type: cell-based; settings: Intrinsic Activity as a fraction relative to the maximum activity of formoterol
T1 construct: Adherent H292 cells were removed from tissue culture flasks; endogenous in cells; host or cells: H292 cells
T1 sequence (P07550 whole entry): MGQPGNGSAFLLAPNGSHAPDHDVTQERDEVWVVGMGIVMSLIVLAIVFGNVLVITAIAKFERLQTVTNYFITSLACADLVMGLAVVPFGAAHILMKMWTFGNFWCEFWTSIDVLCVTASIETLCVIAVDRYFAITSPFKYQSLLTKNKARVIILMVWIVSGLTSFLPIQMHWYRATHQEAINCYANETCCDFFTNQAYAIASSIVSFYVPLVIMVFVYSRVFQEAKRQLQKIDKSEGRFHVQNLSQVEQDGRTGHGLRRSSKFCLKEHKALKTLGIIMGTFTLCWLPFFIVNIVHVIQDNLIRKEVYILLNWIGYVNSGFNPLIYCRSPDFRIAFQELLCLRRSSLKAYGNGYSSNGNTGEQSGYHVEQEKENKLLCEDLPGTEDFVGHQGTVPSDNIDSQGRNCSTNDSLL
Description: Adrenergic β Mediated cAMP Production.
Cell preparation. H292 cells were grown in 225 cm2 flasks incubator at 37° C., 5% CO2 in RPMI medium containing, 10% (v/v) FBS (foetal bovine serum) and 2 mM L-glutamine.
Experimental Method. Adherent H292 cells were removed from tissue culture flasks by treatment with Accutase™ cell detachment solution for 15 minutes. Flasks were incubated for 15 minutes in a humidified incubator at 37° C., 5% CO2. Detached cells were re-suspended in RPMI media (containing 10% (v/v) FBS and 2 mM L-glutamine) at 0.05×10^6 cells per mL. 5000 cells in 100 μL were added to each well of a tissue-culture-treated 96-well plate and the cells incubated overnight in a humidified incubator at 37° C., 5% CO2. […]
AlphaScreen™ cAMP detection. The concentration of cAMP (cyclic adenosine monophosphate) in the cell lysate was determined using AlphaScreen™ methodology. […] The AlphaScreen™ signal was measured using an EnVision spectrophotometer (Perkin-Elmer Inc.) with the recommended manufacturer's settings. cAMP concentrations were determined by reference to a calibration curve determined in the same experiment using standard cAMP concentrations. […] Intrinsic Activity was expressed as a fraction relative to the maximum activity determined for formoterol in each experiment. […]

[2] = Gravimetric Vapour Sorption (GVS); assay type: physicochemical; settings: at 80% RH (±0.2%)
Description: Instrument Details: • X-Ray Powder Diffraction (XRPD)—PANalytical X'Pert machine in 2Ø-Ø configuration or a PANalytical Cubix machine in Ø-Ø configuration over the scan range 2° to 40° 2Ø with 100-second exposure per 0.02° increment. The X-rays were generated by a copper long-fine focus tube operated at 45 kV and 40 mA. […] The Data was collected on zero background holders on which ˜2 mg of the compound was placed. The holder was made from a single crystal of silicon, which had been cut along a non-diffracting plane and then polished on an optically flat finish. The X-rays incident upon this surface were negated by Bragg extinction. • Differential Scanning Calorimetry (DSC) thermograms were measured using a TA Q1000 Differential Scanning Calorimeter, with aluminium pans and pierced lids. The sample weights varied between 0.5 to 5 mg. The procedure was carried out under a flow of nitrogen gas (50 mL/min) and the temperature studied from 30 to 230° C. at a constant rate of temperature increase of 10° C. per minute. • Gravimetric Vapour Sorption (GVS) profiles were measured using a Surface Measurements Systems Dynamic Vapour Sorption DVS-1 or a DVS Advantage instrument. The solid sample ca. 1-5 mg was placed into a glass vessel and the weight of the sample was recorded during a dual cycle step method (40 to 90 to 0 to 90 to 0% relative humidity (RH), in steps of 10% RH).

[3] = test system: guinea pig trachea; assay: Bronchodilator activity in the guinea pig isolated tracheal ring preparation; assay type: cell-based; settings: 60 min, methacholine (1 μM) contracted, mean±s.e.mean
Description: Evaluation of Bronchodilator Activity in the Guinea Pig Isolated Tracheal Ring Preparation
Guinea pigs (300-500 g) were killed by cervical dislocation and the trachea was isolated. The trachea was cut into segments 2-3 cartilage rings in width and suspended in 10 ml organ baths in modified Krebs' solution (mM; NaCl, 90; NaHCO3, 45; KCl, 5; MgSO4.7H2O, 0.5; Na2HPO4.2H2O, 1; CaCl2, 2.25; glucose, 10; pH 7.4 gassed with 5% CO2, 95% O2 at 37° C.). The tracheal rings were attached to an isometric force transducer for the measurement of isometric tension. The tissues were washed and a force of 1 g was applied to each tissue. The rings were contracted with methacholine (1 μM). Once the contraction had reached a plateau, vehicle (0.01% DMSO in distilled H2O), compound W (1 nM or 3 nM), compound X (1 nM), compound Y (1 nM), a combination of compound W (3 nM) and compound X (1 nM), or a combination of compound W (1 nM) and compound Y (1 nM) was added and the tissue left for 60 min. The tension was measured in each ring at 60 min following compound addition and was expressed as a % relaxation of the constriction to methacholine (1 μM) (mean±s.e.mean). Data were collected using the Chart 4 software (ADInstruments, Charlgrove, UK).

O=C(CCNCCc1cccc(F)c1)N(CCNCCc1ccc(O)c2[nH]c(=O)sc12)C1CCCCC1 [Preparation 2, N-Cyclohexyl-N^3-[2-(3-fluorophenyl)ethyl]-N-(2-{[2-(4-hydroxy-2-oxo-2,3-dihydro-1,3-benzothiazol-7-yl)ethyl]amino}ethyl)-β-alaninamide dihydrobromide salt]
β2 Int Act [1]: 0.85

C[C@@](C(=O)O[C@H]1C[N+]2(CCc3ccc(F)cc3)CCC1CC2)(c1ccccc1)N1CCCCC1.[Br-] [Preparation 4 bromide Form A, (R)-1-[2-(4-Fluoro-phenyl)-ethyl]-3-((S)-2-phenyl-2-piperidin-1-yl-propionyloxy)-1-azonia-bicyclo[2.2.2]octane bromide (Form A)]
GVS weight increase [2]: 0.1 % w/w

C[C@@](C(=O)O[C@H]1C[N+]2(CCc3ccc(F)cc3)CCC1CC2)(c1ccccc1)N1CCCCC1.[Br-] [Preparation 4 bromide Form C, (R)-1-[2-(4-Fluoro-phenyl)-ethyl]-3-((S)-2-phenyl-2-piperidin-1-yl-propionyloxy)-1-azonia-bicyclo[2.2.2]octane bromide (Form C)]
GVS weight increase [2]: 4 % w/w

C[C@@](C(=O)O[C@H]1C[N+]2(CCc3ccc(F)cc3)CCC1CC2)(c1ccccc1)N1CCCCC1.Cc1ccc(S(=O)(=O)[O-])cc1 [Preparation 16, (R)-1-(4-fluorophenethyl)-3-((S)-2-phenyl-2-(piperidin-1-yl)propanoyloxy)-1-azoniabicyclo[2.2.2]octane 4-methylbenzenesulphonate]
GVS weight increase [2]: 0.1 % w/w

C[N+](C)(CCOCc1ccc(Cl)cc1)Cc1cnc([C@](O)(c2ccccc2)C2CCCCC2)o1.C[N+](C)(CCOCc1ccc(Cl)cc1)Cc1cnc([C@](O)(c2ccccc2)C2CCCCC2)o1.O=S(=O)([O-])c1cccc2c(S(=O)(=O)[O-])cccc12 [compound X, [2-(4-Chloro-benzyloxy)-ethyl]-[2-((R)-Cyclohexyl-hydroxy-phenyl-methyl)-oxazol-5-ylmethyl]-dimethyl-ammonium hemi-napadisylate salt, reference compound]
percentage relaxation ([3]; 1 nM, n=4, FIG. 29): 1±0.5%

C[C@@](C(=O)O[C@H]1C[N+]2(CCc3ccc(F)cc3)CCC1CC2)(c1ccccc1)N1CCCCC1.[Br-] [compound Y, (R)-1-[2-(4-Fluoro-phenyl)-ethyl]-3-((S)-2-phenyl-2-piperidin-1-yl-propionyloxy)-1-azonia-bicyclo[2.2.2]octane bromide]
percentage relaxation ([3]; 1 nM, n=6, FIG. 30): 17±3.4%

N-Cyclohexyl-N^3-[2-(3-fluorophenyl)ethyl]-N-(2-{[2-(4-hydroxy-2-oxo-2,3-dihydro-1,3-benzothiazol-7-yl)ethyl]amino}ethyl)-β-alaninamide di-D-Mandelate salt [Preparation 3 (Form A)]
percentage relaxation ([3]; 1 nM, n=6, FIG. 30): 48±3.9%
percentage relaxation ([3]; 3 nM, n=4, FIG. 29): 46±10.7%
GVS weight increase [2]: 1 % w/w
